# Test results taken from the OPERA property sets (Mansouri et al. 2018).
# Conditions: for log10 BCF / log10 biotransformation half-life (days): fish
SMILES,melting point [°C],boiling point [°C],other results
CN(C)c1ccc(N=Nc2ccc([N+](=O)[O-])cc2)cc1,236,–,log10 vapour pressure (mmHg): -10
CC(C)(N)Cc1ccccc1Cl,–,–,ready biodegradability: not readily biodegradable
Cc1ccc(N=C=O)cc1N=C=O,20.5,251,log10 vapour pressure (mmHg): -2.1; ready biodegradability: not readily biodegradable
CC(C)C#N,-71.5,104,log10 Koa: 2.87; log10 vapour pressure (mmHg): 1.51; ready biodegradability: readily biodegradable
CCCCCCCCC(CCCCCCCC)C(=O)O,38.5,–,–
CC(C(N)=O)n1nc2ccccc2n1 (configuration not stated),170,–,–
[C-]#[N+]C,-45,59.6,–
COCOC,-105,42,log10 Henry constant (atm·m³/mol): -3.76; log10 vapour pressure (mmHg): 2.6
CCCCOS(=O)OCCCC,–,230,–
C[Si](C)(C)N[Si](C)(C)C,–,125,log10 vapour pressure (mmHg): 1.14
CO[SiH](OC)OC,-115,81,log10 vapour pressure (mmHg): 1.88
Clc1ccc(Cl)c(-c2ccccc2Cl)c1,–,–,log10 Henry constant (atm·m³/mol): -3.6; log10 Koa: 7.6; log10 Koc (L/kg): 4.4; log10 vapour pressure (mmHg): -2.98; log10 BCF: 4.23; log10 biotransformation half-life (days): 1.87
c1ccc(C(c2ccccc2)(c2ccccc2)c2ccccc2)cc1,282,431,–
O=C1C=CCCC1,-53,170,–
C=C(C)c1ccccc1C,–,175,–
CCCCCCCCCCCCCCCCCCCCCCCC(=O)O,84.2,–,–
O=C(c1ccccc1)c1ccc(Cl)cc1,77.5,332,–
C=CCC(C(=O)NC(N)=O)C(C)C (configuration not stated),194,–,–
CCB(CC)CC,-93,95,–

SMILES,melting point [°C],boiling point [°C],other results
OCCn1ccnc1,39,–,–
C1CCN(SSN2CCCCC2)CC1,64.2,–,–
CCOc1cccc(C=O)c1,–,246,–
Oc1ccc2ncccc2c1,195,360,–
CCOC(=O)c1ccccc1Br,–,254,–
CC(C)NC(=O)N1CC(=O)N(c2cc(Cl)cc(Cl)c2)C1=O,136,–,log10 Henry constant (atm·m³/mol): -8.51; log10 Koc (L/kg): 2.85; log10 vapour pressure (mmHg): -8.43; log10 BCF: 2.53
O=C(Oc1ccccc1)c1ccccc1C(=O)Oc1ccccc1,73,–,–
O=[N+]([O-])c1cc(Cl)c(Cl)c(Cl)c1Cl,–,–,log10 Koc (L/kg): 4.23; log10 BCF: 1.9; log10 biotransformation half-life (days): -0.69
COc1cccc2ccccc12,–,269,ready biodegradability: not readily biodegradable; log10 BCF: 2.21; log10 biotransformation half-life (days): 0.39
COc1ccc(-c2cc(=O)c3c(O)cc(O)cc3o2)cc1O,254,–,–
O=CC1CCCCC1,–,159,–
Cc1ccc2cnccc2c1,85.5,266,–
CCC(C)CC(C)CC (configuration not stated),–,136,–
C=C1C2CCC3C(CCC4C35CCC[C@]4(C)CN3CCO[C@H]35)(C2)[C@H]1O (some centres not stated),120,–,–
CCO,-114,78.2,log10 Henry constant (atm·m³/mol): -5.3; log10 vapour pressure (mmHg): 1.77; ready biodegradability: readily biodegradable
NC(=O)c1c(F)cccc1F,146,–,–
O=C1c2cccc(O)c2C(=O)c2c(O)cccc21,193,–,–
CCC(=O)Cc1ccccc1,–,230,–
O=C(O)Cc1ccc(Br)cc1,116,–,–

SMILES,melting point [°C],boiling point [°C],other results
c1ccc(-n2cccc2)cc1,62,234,–
Nc1ccc(C(=O)c2ccccc2)cc1,122,–,–
Nc1nccs1,93,–,ready biodegradability: not readily biodegradable
Cc1cccc(C)c1NC(=O)C(C)N (configuration not stated),256,–,–
CC(C)(C)N(NC(=O)c1ccccc1)C(=O)c1ccccc1,178,–,–
CCCc1ccccc1C,-60.3,185,log10 biodegradation half-life (days): 0.477; log10 vapour pressure (mmHg): -0.0027
CCCCCCC[C@H](C)O,-35.5,194,log10 vapour pressure (mmHg): -1.17
CCC/C=C/COC(C)=O,–,166,–
CCCCCCNC(=O)C=Cc1ccc(O)c(O)c1,142,–,–
NCCCCCC(=O)O,205,–,–
COc1cc(C(=O)N2CCOCC2)cc(OC)c1OC,121,–,–
CC1=CC[C@@H]2CC1OC2(C)C,–,184,–
CCCCCCCCCCCC1=C(O)C(=O)C=C(O)C1=O,142,–,–
CCC(C)OC(C)=O (configuration not stated),-98.9,112,log10 vapour pressure (mmHg): 1.23; ready biodegradability: readily biodegradable
COC(=O)Nc1cccc(C)c1,–,–,ready biodegradability: readily biodegradable
CCC#CCCC,-130,107,–
CC1CCC1,-162,36.3,log10 vapour pressure (mmHg): 3.17
O=CC=Cc1ccccc1,-7.5,246,log10 vapour pressure (mmHg): -1.54
CCN(CCO)c1ccccc1,37,268,–
